Data on twelve compounds can be found in patent US20230416316A1, “ADP-RIBOSE BINDING PEPTIDES WITH ANTI-CANCER ACTIVITY AND USE THEREOF” (PearlsInMires Co., Ltd., priority 2021, published 2023).

Type in all cases: cell-based
The test system of data set [1] is MDA-MB-231 cells. The experiment in a line: Viability of MDA-MB-231 cells, docetaxel alone or combined with peptides. The settings on record: 50 μM docetaxel alone, 24 hours. On the procedure: (§1) After culturing 3×10^3 MDA-MB-231 cells in a 96-well plate for 24 hours under conditions of 37° C. and 5% CO2, the cells were treated with 50 μM docetaxel alone or in combination with the peptides of Examples 15 to 28 at a concentration of 0.2, 1 or 8 μM. Then, the cells were cultured for 24 hours under conditions of 37° C. and 5% CO2, 10 μl of 3-(4,5-dimethylthiazol-2-yl)-2,5-diphenyltetrazolium bromide reagent was added to each well, followed by reaction for 1 hour. After the reaction was completed, the reagent was removed, 200 μl of dimethyl sulfoxide was added to each well, and the absorbance was measured to confirm cell viability.

Another data set has as its system Aspc-1 cells. The experiment in a line: Viability of Aspc-1 cells, gemcitabine alone or combined with peptides. As to conditions: 1 nM gemcitabine alone, 24 hours. The procedure:
as §1, with “culturing 3×10^3 Aspc-1 cells in” for “culturing 3×10^3 MDA-MB-231 cells in”, “treated with 1 nM gemcitabine alone or” for “treated with 50 μM docetaxel alone or”, “5% CO2, and 10 μl” for “5% CO2, 10 μl”

Another data set has as its system H1975 cells. Nature of the data set: Viability of H1975 cells, osimertinib alone or combined with peptides. The settings on record: Homo sapiens, NCI-H1975, 1 nM osimertinib alone, 24 hours, read-out: viable cancer cells. On the procedure:
as §1, with “culturing 3×10^3 H1975 cells in” for “culturing 3×10^3 MDA-MB-231 cells in”, “treated with 1 nM osimertinib alone or” for “treated with 50 μM docetaxel alone or”, “of Examples 1 to 14” for “of Examples 15 to 28”, “1 to 14 at a” for “15 to 28 at a”, “5% CO2, and 10 μl” for “5% CO2, 10 μl”

Data set [2] concerns MDA-MB-231 cells. Nature of the data set: Cell viability (MTT, photomicrographs) in MDA-MB-231 cells. As to conditions: 16 μM peptide, 24 hours. On the procedure:
(§2) After culturing 3×10^3 MDA-MB-231 cells in a 96-well plate for 24 hours under conditions of 37° C. and 5% C02, the cells were either untreated or treated with the peptides of Examples 1 to 28 at a concentration of 16 μM, respectively. Then, the cells were cultured for 24 hours under conditions of 37° C. and 5% CO2, and 10 μl of 3-(4,5-dimethylthiazol-2-yl)-2,5-diphenyltetrazolium bromide reagent was added to each well, followed by reaction for 1 hour. After the reaction was completed, the reagent was removed, 200 μl of dimethyl sulfoxide was added to each well, and the absorbance was measured to confirm cell viability.

Data set [3] has as its system MDA-MB-231 cells. Nature of the data set: ADP-ribose level by ELISA in MDA-MB-231 cells. The settings on record: 0.2-32 μM peptide, 24 hours. The procedure: (§3) The peptides of Examples 1 to 28 of the present disclosure are designed to inhibit the action of poly ADP-ribose degradation enzyme. In Experimental Example 1, it was confirmed through cell experiments whether poly ADP-ribose was inhibited from being degraded by each of the peptides and accumulated in cancer cells.
5×10^3 MDA-MB-231 cells were divided into a group not treated with the Example peptide and a group treated with 0.2, 1, 2, 4, 8, 16, and 32 μM of the peptide of Example 5 (SEQ ID NO: 5), and cultured for 24 hours under conditions of 37° C. and 5% CO2 in Leibovitz's L-15 medium supplemented with 10% FBS, 100 units/ml penicillin, and 100 μg/ml streptomycin. The medium of the cultured cells was removed, and the samples were treated with RIPA buffer and 1% SDS. The prepared supernatant was used for ELISA analysis to detect and analyze ADP-ribose.

Data set [4] concerns Hep G2 cells. Nature of the data set: Cell viability (MTT, photomicrographs) in Hep G2 cells. The settings on record: 16 μM peptide, 24 hours. The procedure: 2-4. Change in viability in Hep G2 cells according to treatment with ADP-ribose binding peptide After culturing 3×10^3 Hep G2 cells in a 96-well plate for 24 hours under conditions of 37° C. and 5% CO2, the cells were either untreated or treated with the peptides of Examples 1 to 28 at a concentration of 16 μM, respectively. Then, the cells were cultured for 24 hours under conditions of 37° C. and 5% CO2, and 10 μl of 3-(4,5-dimethylthiazol-2-yl)-2,5-diphenyltetrazolium bromide reagent was added to each well, followed by reaction for 1 hour. After the reaction was completed, the reagent was removed, 200 μl of dimethyl sulfoxide was added to each well, and the absorbance was measured to confirm cell viability.

Data set [5] relates to Hep G2 cells. Nature of the data set: ADP-ribose level by ELISA in Hep G2 cells. As to conditions: 0.2-32 μM peptide, 24 hours. On the procedure:
as §3
5×10^5 Hep G2 cells were divided into a group not treated with the peptide of Example and a group treated with 0.2, 1, 2, 4, 8, 16, and 32 μM of the peptide of Example 4 (SEQ ID NO: 4), and cultured for 24 hours under conditions of 37° C. and 5% CO2 in EMEM medium supplemented with 10% FBS, 100 units/ml penicillin, and 100 μg/ml streptomycin. The medium of the cultured cells was removed, and the samples were treated with RIPA buffer and 1% SDS. The prepared supernatant was used for ELISA analysis to detect and analyze ADP-ribose.

A further data set concerns HDPC. Nature of the data set: Cytotoxicity in normal cells HDPC. The settings on record: HDPC human dermal papilla cell, 25, 50 and 100 μM, 24, 48 or 72 hours; listed as SEQ ID NO: 7. The procedure: (§4) As normal cells for testing, CCD-18Co, which is a human colon fibroblast, and HDPC, which is a human dermal papilla cell, were used. Further, the peptide of SEQ ID NO: 7 was used as a representative peptide of Examples of the present disclosure.
(§5) First, 5×10^3 cells of each normal cell were inoculated into a 96-well plate and cultured in DMEM medium for 24 hours under conditions of 37° C. and 5% CO2. The respective wells were divided into a group untreated with the peptide and groups treated with the peptide of SEQ ID NO: 7 (25, 50, and 100 μM, respectively), and tested.

The test system of a further data set is CCD-18Co. Nature of the data set: Cytotoxicity in normal cells CCD-18Co. As to conditions: CCD-18Co human colon fibroblast, 25, 50 and 100 μM, 24, 48 or 72 hours; listed as SEQ ID NO: 7. The procedure: as §4, §5
Data set [6] has as its system HCT116 cells. Nature of the data set: ADP-ribose level by ELISA in HCT116 cells. The settings on record: 0.2-32 μM peptide, 24 hours. On the procedure:
as §3
5×10^5 HCT116 cells were divided into a group not treated with the peptide of Example and a group treated with 0.2, 1, 2, 4, 8, 16, and 32 μM of the peptide of Example 6 (SEQ ID NO: 6), and cultured for 24 hours under conditions of 37° C. and 5% CO2 in McCoy's 5A medium supplemented with 10% FBS, 100 units/ml penicillin, and 100 μg/ml streptomycin. The medium of the cultured cells was removed, and the samples were treated with RIPA buffer and 1% SDS. The prepared supernatant was used for ELISA analysis to detect and analyze ADP-ribose.

Data set [7] relates to HCT116 cells. The experiment in a line: Cell viability (MTT, photomicrographs) in HCT116 cells. The settings on record: 16 μM peptide, 24 hours. On the procedure:
as §2, with “HCT116” for “MDA-MB-231”, “CO2,” for “C02,”

Data set [8] relates to Caki-1 cells. Nature of the data set: ADP-ribose level by ELISA in Caki-1 cells. The settings on record: 0.2-32 μM peptide, 24 hours. On the procedure: as §3
5×10^5 Caki-1 cells were divided into a group not treated with the peptide of Example and a group treated with 0.2, 1, 2, 4, 8, 16, and 32 μM of the peptide of Example 7 (SEQ ID NO: 7), and cultured for 24 hours under conditions of 37° C. and 5% CO2 in McCoy's 5A medium supplemented with 10% FBS, 100 units/ml penicillin, and 100 μg/ml streptomycin. The medium of the cultured cells was removed, and the samples were treated with RIPA buffer and 1% SDS. The prepared supernatant was used for ELISA analysis to detect and analyze ADP-ribose.

Data set [9] concerns Caki-1 cells. The experiment in a line: Cell viability (MTT, photomicrographs) in Caki-1 cells. As to conditions: 16 μM peptide, 24 hours. The procedure:
as §2, with “Caki-1” for “MDA-MB-231”, “CO2,” for “C02,”

The next data set deals with U-87MG cells. The experiment in a line: Viability of U-87MG cells, bevacizumab alone or combined with peptides. On the set-up: dose or concentration left out as unconfirmed. The settings on record: bevacizumab alone, 24 hours. The procedure: as §1, with “culturing 3×10^3 U-87MG cells in” for “culturing 3×10^3 MDA-MB-231 cells in”, “treated with 18 mM of bevacizumab alone or” for “treated with 50 μM docetaxel alone or”, “of Examples 1 to 14” for “of Examples 15 to 28”, “1 to 14 at a” for “15 to 28 at a”, “5% CO2, and 10 μl” for “5% CO2, 10 μl”

Entries after “also recorded” stand apart in the source; their conditions may differ. Ends that are not written are not given here.

Turning to `CC(=O)O[C@@]12CO[C@@H]1C[C@H](O)[C@@]1(C)C(=O)[C@H](O)C3=C(C)[C@@H](OC(=O)[C@H](O)[C@@H](NC(=O)OC(C)(C)C)c4ccccc4)C[C@@](O)([C@@H](OC(=O)c4ccccc4)[C@H]21)C3(C)C` [docetaxel], the cancer cells survived result in the data set with MDA-MB-231 cells [1] is recorded as “about 52%”. Turning to `Nc1ccn([C@@H]2O[C@H](CO)[C@@H](O)C2(F)F)c(=O)n1` [gemcitabine], in the data set with Aspc-1 cells, the cancer cells survived entry is reported as “about 50%”. Regarding `C=CC(=O)Nc1cc(Nc2nccc(-c3cn(C)c4ccccc34)n2)c(OC)cc1N(C)CCN(C)C` [osimertinib], the viability at 0.001 µM in the data set with H1975 cells was approximately 49%.

Consider “FCYLIYFNSMSQMNRQTRRRRRLRR (ADP-ribose binding peptide) [Example 5]”, for which the “cancer cell growth and survival” value in the data set on MDA-MB-231 cells [2] was “inhibited from growing and killed”. In addition, the “amount of increase in ADP-ribose (fold change) compared to the control group” value with MDA-MB-231 cells [3] was “significant increase in the amount of ADP-ribose in a concentration-dependent manner”. Turning to “FLYVADLENMVQYRRNEHGRRRKIKR (ADP-ribose binding peptide) [Example 11]”, the “cancer cell growth and survival” value in the data set on Hep G2 cells [4] is “inhibited from growing and killed”. The “amount of increase in ADP-ribose (fold change) compared to the control group” value in the data set on Hep G2 cells [5] is “significant increase in the amount of ADP-ribose in a concentration-dependent manner”.

As to FSYKIDFAEMKQMNLTTGKQRLIKR [Example 7], the “cytotoxicity to normal cells versus untreated control” value in the data set on HDPC and with CCD-18Co was “no significant difference; also recorded: no toxicity was shown” throughout.

For the compound FSYVIDENTMGQINRQTQRQRRVRR [Example 6], the “amount of increase in ADP-ribose (fold change) compared to the control group” value in the data set with HCT116 cells [6] is reported as “significant increase in the amount of ADP-ribose in a concentration-dependent manner”. Further, the “cancer cell growth and survival” value in the data set on HCT116 cells [7] was “inhibited from growing and killed”. Take “GRYDVHLGERMRYAVYWDELASEVRR (ADP-ribose binding peptide) [Example 13]”: in the data set with HCT116 cells [6], the “amount of increase in ADP-ribose (fold change) compared to the control group” value is “significant increase in the amount of ADP-ribose in a concentration-dependent manner”. Also, the “cancer cell growth and survival” value in the data set on HCT116 cells [7] was “inhibited from growing and killed”. With “RHYTVNLNTYTATDTKGHSLSVQR (ADP-ribose binding peptide) [Example 12]”, in the data set with MDA-MB-231 cells [2], the “cancer cell growth and survival” value is “inhibited from growing and killed”. Moreover, in the data set with MDA-MB-231 cells [3], the “amount of increase in ADP-ribose (fold change) compared to the control group” value was “significant increase in the amount of ADP-ribose in a concentration-dependent manner”. With “RVYTIDENSMQQINEDTGTARAIQR (RVYTIDFNSMQQINEDTGTARAIQR; ADP-ribose binding peptide) [Example 4]”, the “cancer cell growth and survival” value in the data set on Hep G2 cells [4] is “inhibited from growing and killed”. For the same compound, the “amount of increase in ADP-ribose (fold change) compared to the control group” value in the data set with Hep G2 cells [5] is on record as “significant increase in the amount of ADP-ribose in a concentration-dependent manner”. As for “TAYEASVCDYLEQQVARGN (ADP-ribose binding peptide) [Example 14]”, in the data set on Caki-1 cells [8], the “amount of increase in ADP-ribose (fold change) compared to the control group” value was “significant increase in the amount of ADP-ribose in a concentration-dependent manner”. Further, the “cancer cell growth and survival” value in the data set with Caki-1 cells [9] was “inhibited from growing and killed”. As for bevacizumab, in the data set on U-87MG cells, the viable cancer cells entry is reported as “about 49%”.
